Laboratory results as given in article PMC7815716, “Mechanistic basis of breast cancer resistance protein inhibition by new indeno[1,2-b]indoles” (Scientific Reports, 2021).
Read-outs that look alike come from different tables or passages of the source.

Key:
[1] = tested on: HEK293 WT and HEK293-ABCG2 cells; experiment: Intrinsic cytotoxicity of compounds, MTT assay; assay type: cell-based, human; details: HEK293-ABCG2 vs HEK293 WT, 72 h, 0.1–100 µM
Experimental: (§1) Cell viability was evaluated with a 3-(4,5-dimethylthiazol-2-yl)-2,5-diphenyltetrazolium bromide (MTT) colorimetric assay. HEK293 WT and HEK293-ABCG2 cells were seeded into 96-well culture plates at a 1.5 × 10^4 cells/well density. After overnight incubation, the cells were treated with various concentrations of compounds (0–100 µM) for 72 h at 37 °C under 5% CO2. […] Sensitization experiments were also carried out on H460 and H460MX20 cells. For these experiments, H460 and H460MX20 cells were seeded into 96-well culture plates at 1.0 × 10^4 cells/well density. […] After the treatment, the culture medium was removed and 100 μL of a 0.5 mg.mL^−1 MTT solution was added. Cells were then incubated for 4 h at 37 °C under 5% CO2. The formazan crystals were dissolved with a solution of DMSO/ethanol (1:1) and the absorbance was measured at 570 nm using a Multiscan FC microplate reader (Thermo Scientific). The results were expressed as percentage of viable cells versus control cells (0.1% DMSO, v/v) taken as 100%.

[2] = biological target: T1, ABCG2 (Homo sapiens, UniProt Q9UNQ0); experiment: Thermostabilization assay (ATPase activity after heating); assay type: biochemical; details: 10 µM, curves with or without ATP
T1 sequence (Q9UNQ0 1-655): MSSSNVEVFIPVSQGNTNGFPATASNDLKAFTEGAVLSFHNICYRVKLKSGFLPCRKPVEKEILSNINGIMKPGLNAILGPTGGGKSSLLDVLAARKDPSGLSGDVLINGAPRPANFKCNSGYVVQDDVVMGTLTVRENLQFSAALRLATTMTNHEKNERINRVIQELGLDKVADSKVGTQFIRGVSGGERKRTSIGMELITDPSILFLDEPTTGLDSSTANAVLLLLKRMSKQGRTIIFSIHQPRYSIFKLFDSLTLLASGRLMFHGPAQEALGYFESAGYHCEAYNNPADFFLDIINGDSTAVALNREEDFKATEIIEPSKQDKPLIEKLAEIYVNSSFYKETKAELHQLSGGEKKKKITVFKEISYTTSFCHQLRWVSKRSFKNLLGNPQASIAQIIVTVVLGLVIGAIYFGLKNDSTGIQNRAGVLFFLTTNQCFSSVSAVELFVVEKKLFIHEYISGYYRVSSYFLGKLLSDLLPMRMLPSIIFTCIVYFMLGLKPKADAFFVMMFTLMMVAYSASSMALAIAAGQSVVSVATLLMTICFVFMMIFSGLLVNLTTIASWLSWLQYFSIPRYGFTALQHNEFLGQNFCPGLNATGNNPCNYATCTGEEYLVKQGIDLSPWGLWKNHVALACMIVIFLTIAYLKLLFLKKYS
Experimental: The thermal stability assay was performed according to the published. Total membrane prepared from High Five insect cells overexpressing the ABCG2 at 3 µg protein/tube concentration were incubated with assay buffer composed by 50 mM Tris–HCl, pH 6.8, 150 mM N-methyl-D-glucamine (NMDG)-Cl, 5 mM sodium azide, 1 mM ouabain and 2 mM DTT in the presence or absence of 0.3 mM orthovanadate at final volume of 50 µL. To evaluate the effect of those inhibitors over thermal stability, each sample was prepared with 12.5 mM MgCl2 or 6.25 mM ATP and incubated with a temperature range from 37 to 71 °C for 10 min using a thermocycler C1000 Touch (Bio-Rad, Hercules, CA). After incubation, 10 µL of 25 mM ATP or 50 mM MgCl2 (5 and 10 mM final concentration, respectively) was added and incubated at 37 °C/20 min to allow ATP hydrolysis. The reaction was stopped with the addition of 50 µL of Pi solution containing 1% ammonium molibdate, 2.5 N H2SO4 and 0.014% potassium-antimony tartrate. To evaluate the absorbance, the samples were transferred to a 96 well plate (50 µL/well), added 150 µL of 0.33% sodium ascorbate solution. The absorbance was measured after 15 min incubation at room temperature using the microplate reader Spectramax iD3 (Molecular Devices, San Jose, CA). The sensitive activity to vanadate (Vi) was calculated as the difference between the activity in the absence of Vi minus the activity in the presence of Vi to each temperature.

[3] = biological target: T1, ABCG2; experiment: ABCG2 ATPase activity, High-Five insect cell total membranes; assay type: biochemical; design: expressed in transfected cells
Experimental: The ATPase assay was carried out as previously described. High-Five insect cell total membranes overexpressing ABCG2 were used at a concentration of 5 µg protein/tube in a final volume of 100 µL. The membranes were incubated in assay buffer containing 50 mM Tris–HCl, pH 6.8, 150 mM N-methyl-D-glucamine (NMDG)-Cl, 5 mM sodium azide, 1 mM EGTA, 1 mM ouabain, 2 mM DTT, and 10 mM MgCl2, in the presence or absence of sodium orthovanadate (0.3 mM). The protein-buffer mix was treated with the compounds at increasing concentrations (0.001–5 µM) and incubated for 20 min at 37 °C in the presence of ATP (5 mM). The reaction was stopped with the addition of 100 µL of 5% SDS, for color development was added 400 µL of Pi solution (sulfuric acid 36.2 N, water, ammonium molybdate and antimony potassium tartrate) and 200 µL of 1% ascorbic acid. The absorbance was measured after 10 min at 880 nm using a spectrophotometer Ultrospec 3100 pro (Amersham Biosciences).
Table S2. Effect of indeno[1,2-b]indole derivatives on the ATPase activity of ABCG2.The vanadate-sensitive ATPase activity of ABCG2 was measured using the total membranes of High-Five insect cells expressing this transporter as described previously [S5]. The EC50 (concentration required to achieve 50% stimulation) is given as the concentration ± SD (nM) of three independent experiments in duplicate.

[4] = tested on: H460MX20 cells; experiment: Sensitization of lung cancer cells overexpressing ABCG2 to SN-38, MTT assay; assay type: cell-based, human; details: H460MX20, SN-38 10 nM, 72 h, IC50 value or 5 µM
Experimental: as §1

[5] = EC50 (nM ± SD) values of stimulation on the ATPase activity of ABCG2, vanadate-sensitive ATPase, High-Five insect cell total membranes
[6] = EC50 of stimulation of ABCG2 ATPase activity, approximate values

| SMILES | Intrinsic cytotoxicity in ABCG2-transfected versus control cells (cross-resistance) [1] | Thermostabilization effect [2] | EC50 [3, 5] [nM] | EC50 [3, 6] [nM] | Chemosensitization to SN-38 [4] | EC50 ([3]; approximate values, read-out: EC50 of stimulation of ABCG2 ATPase activity) [nM] | EC50 ([3]; vanadate-sensitive ATPase, High-Five insect cell total membranes, read-out: EC50 (nM ± SD) values of stimulation on the ATPase activity of ABCG2) [nM] |
| --- | --- | --- | --- | --- | --- | --- | --- |
| COc1ccc2[nH]cc(CCn3c4c(c5c(O)cccc53)C(=O)c3ccccc3-4)c2c1 [6c, 9-Hydroxy-5-(2-(5-methoxy-1H-indol-3-yl)ethyl)indeno[1,2-b]indol-10(5H)-one] | mild collateral sensitivity (CS) effect | most pronounced effect | 4.4 ± 0.71 | ~3 |  |  |  |
| COc1cccc(CCn2c3c(c4c(O)cccc42)C(=O)c2ccc(O)cc2-3)c1 [6d, 3,9-Dihydroxy-5-(3-methoxyphenethyl)indeno[1,2-b]indol-10(5H)-one] | mild collateral sensitivity (CS) effect | most pronounced effect | 3.2 ± 0.44 | ~3 |  |  |  |
| COc1cc2c(cc1OC)-c1c(c3c(n1CCc1ccccc1)CC(C)CC3=O)C2=O (stereo not drawn) [5e, 2,3-Dimethoxy-7-methyl-5-phenethyl-5,6,7,8-tetrahydroindeno[1,2-b]indole-9,10-dione] | no apparent cross-resistance | moderate effect |  |  | chemoresistance phenotype was fully reversed | ~170 | 170 ± 11 |
| COc1ccccc1CCn1c2c(c3c(O)cc(C)cc31)C(=O)c1ccccc1-2 [6a, 9-Hydroxy-7-methyl-5-(2-methoxyphenethyl)-5H-indeno[1,2-b]indol-10(5H)-one] | no apparent cross-resistance | moderate effect | 2.9 ± 0.45 | ~3 | chemoresistance phenotype was fully reversed |  |  |
